Results on 2 molecules are retold here after patent US6177592A, “Compounds” (priority 1997, dated 2001).

Assay [1] relates to heat shock protein of 70 kDa (HSP70). Description: Induction of heat shock protein of 70 kDa in HL-60. In kind it is cell-based, human. On the set-up: key to Induction of Heat Shock Protein: -: no induction was noted; ±: the induction was slight; indicates degree of intensity of induction and the more the numbers of "+", the more the intensity of induction; ++: the more the numbers of "+", the more the intensity of induction; +++: the more the numbers of "+", the more the intensity of induction. The note with it: for action of inducing the heat shock protein (in words): Example 14, compared with GM and CM. On the procedure:
(1) An RPMI 1640 medium (5 ml) containing 10% of fetal bovine serum which contained 2×10^5 cells/ml of HL-60 (ATCC CCL-24C) was placed in each well of a six-well plate, incubated at 37° C. for 24 hours in the presence of 5% of CO2, then GM was added thereto to make its final concentration 0, 0.5, 1.0, 3.0, 5.0, 10.0 or 20.0 μM and the incubation was further continued for eight hours more.
After completion of the incubation, cell numbers were counted and the cells were recovered by centrifugation and washed with PBS to prepare GM-treated cells. In the meanwhile, cells which were heated at 45° C. for ten minutes followed by subjecting to the same incubation were prepared as well.
The cells treated as such were subjected to an SDS-PAGE by a method mentioned in "Molecular Cloning" [Cold Spring Harbor Laboratory Press, (1989)]. The treated cells were suspended in an SDS-PAGE sample buffer to make the concentration 2.5×10^6 cells/ml, the resulting cell suspension was treated at 100° C. for ten minutes and each 5 μl thereof was applied to two sheets of SDS-PAGE gels (5% stacking gel; 10% separation gel) to conduct an electrophoresis. One of the gels was stained with Coomassie Brilliant Blue R250 while another gel was subjected to a blotting to a polyvinylidene difluoride transfer membrane (Immobilon™, manufactured by Millipore, catalog no. IPVH000-10). The membrane was subjected to a blocking at 4° C. for one night with Block Ace (manufactured by Dainippon Pharmaceutical; catalog no. UK-B25).
The blocked membrane was made to react with monoclonal antibody HSP 72/73 (Ab-1) (manufactured by Oncogene Research Products, catalog no. HSP01) which specifically reacted with heat-induced heat shock protein of 70 kDa and washed with TBS containing 0.05% of Tween 20 followed by further washing with TBS. After that, it was made to react with peroxidase-compounded secondary antibody HRP-Rabbit Anti-Mouse IgG (H+L) (manufactured by Zymed Laboratories, catalog no. 61-6520) and washed by the same manner as in the above operation. The membranes which were treated with primary and secondary antibodies as such were made to react with Renaissance™ (a chemiluiminor reagent manufactured by Dupont NEN, catalog no. NEL-100) and photosensitized with an X-ray film to detect the induction of heat shock protein of 70 kDa.
(2) CM was added to the incubated cells to make its final concentration 0, 10, 20, 30, 40 or 50 μM and expression of HSP70 was measured by the method as mentioned in Example 14-(1).

Assay [2] relates to HL-60 cells (promyelocytic leukemia cell). Description: Viable cell numbers of HL-60 (growth inhibition of cancer cells). In kind it is cell-based, human. On the procedure:
(1) Each 0.5 ml of 0.2 mM CM, 0.8 mM CM or 1.6 mM CM was added to 4.5 ml of RPMI 1640 medium containing 10% of fetal calf serum and 2.5×10^5HL-60 cells (promyelocytic leukemia cell) (ATCC CCL-240) and incubated at 37° C. for 24 hours or 48 hours in the presence of 5% carbon dioxide gas and the numbers of viable cells were measured.
In FIG. 28, open square (.quadrature.) indicates the case where CM is added followed by culturing for 24 hours; black square (.box-solid.) indicates the case where CM is added followed by culturing for 48 hours; open triangle (Δ) indicates the case where no sample was added followed by culturing for 24 hours; and black triangle (.tangle-solidup.) indicates the case where no sample was added followed by culturing for 48 hours.
(4) HL-60 cells (ATCC CCL240) which were incubated at 37° C. in an RPMI 1640 medium (manufactured by Nissui) containing 10% of fetal calf serum (manufactured by Gibco) treated at 56° C. for 30 minutes were suspended in the above medium to make the concentration 2.5×10^5cells/4.5 ml. To this suspension was added 0.5 ml of 100 μM aqueous solution of GM (final concentration: 10 μM) followed by incubating at 37° C. in the presence of 5% carbon dioxide gas for 24 hours, 48 hours and 72 hours. […]

A further assay deals with IMC. The experiment in a line: IMC/CDF1 mice macrobiotic effect. It counts as in vivo.

In the case of `N[C@@H](CSC1C=C(O)C(=O)C1)C(=O)O` (some centres unmarked) [CM], the “Induction of Heat Shock Protein” value in assay [1] (10 μM CM) is “+”; in assay [1] (20 μM CM), “++”; in assay [1] (30 μM CM) it was “++”; in assay [1] (40 μM CM), “+”; in assay [1] (50 μM CM), “+”. Also, the “action of inducing the heat shock protein (in words)” value in assay [1] was “action of inducing the heat shock protein”. The “inhibition activity of the growth of cancer cells” value in assay [2] (0.5 ml of 0.2, 0.8 or 1.6 mM CM added to 4.5 ml, 24 or 48 hours) was “intensive inhibition activity of the growth of cancer cells”. Moreover, the macrobiotic effect entry with IMC is listed as “same macrobiotic effect”.

Take `N[C@@H](CCC(=O)N[C@@H](CSC1C=C(O)C(=O)C1)C(=O)NCC(=O)O)C(=O)O` (some centres unmarked) [GM, 2-hydroxy-4-glutathion-S-yl-2-cyclopenten-1-one]: the “Induction of Heat Shock Protein” value in assay [1] (0.5 μM GM, eight hours) is given as “±”; in assay [1] (1.0 μM GM, eight hours), “±”; in assay [1] (3.0 μM GM, eight hours), “+”; in assay [1] (5.0 μM GM, eight hours), “+”; in assay [1] (10 μM GM, eight hours) it was “++”; in assay [1] (20 μM GM, eight hours) it was “++”. Further, the “action of inducing the heat shock protein (in words)” value in assay [1] is listed as “action of inducing the heat shock protein”. The “viable cell numbers and viability of cells” value in assay [2] (10 μM GM, 24, 48 and 72 hours, vs water control) is given as “significantly reduced”. In the assay with IMC, the macrobiotic effect result is “same macrobiotic effect”.
